Data taken from patent US11253497B2, “Use of derivatives of polyunsaturated fatty acids as medicaments” (Lipopharma Therapeutics, S.L., priority 2009, dated 2022).

What was measured:
TNF-α = assay: Production of TNF-α in serum of LPS-injected C57BL6/J mice; format: in vivo; conditions: LPS 20 μg i.p. (100%), 200 mg/kg p.o.
Outline: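 C57BL6/J mice given intraperitoneal LPS (20 μg) to induce inflammation, then dosed orally with derivatives at 200 mg/kg. Serum TNF-α measured.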

B6 healthy mice = assay: Radial maze in control animals (B6 healthy mice); format: in vivo; conditions: 20 mg/kg daily po, 3 months
Experimental: (§1) To test the efficacy of the compounds of the present invention to induce neuroregeneration or inhibit neurodegeneration, an animal model of Alzheimer's disease was used. In this model mice develop neurodegeneration because they express a series of mutant proteins that lead to brain damage (Alzh mice). B6 mice were used as healthy animal controls. Both groups of animals were treated for a period of 3 months with vehicle (water) or with various D-PUFA (20 mg/kg, daily po) since they were an age of 3 months. To determine whether cognitive improvement occurred after treatment, animal behaviour was monitored in the radial maze. The animals are kept on restricted diet to have appetite. In a symmetrical 8-arm radial maze, visual marks were placed to facilitate the orientation of the animal and food (15 mg tablet) was put in four of the arms. The time each animal took to complete the exercise, and the number of errors, were measured using a camera attached to a computer system. In this sense, Alzheimer animals have values about 50% higher than healthy animals, both by the time it takes to perform the exercise and by the number of errors made (FIG. 4B). […] In this regard, the effectiveness of the compound 183B1, 205A1, 205B1, 226A1, 226 V1 was also tested, showing improvements in animals with Alzheimer's disease (times of 98, 92, 93, 86 and 89 seconds, respectively). On the other hand, it is also interesting that these same compounds (183B1, 205A1, 205B1, 226A1, 226B1 and 226V1) also produced reductions in the times taken to complete the experiment in control animals (B6 healthy mice) of 8s, 11s, 12s, 18s, 16s and 14s, respectively. Therefore, it may be concluded that these compounds have significant activity against neurodegeneration and in neuroregeneration.

Alzh mice = assay: Radial maze in animal model of Alzheimer's disease (Alzh mice); format: in vivo; conditions: animals with Alzheimer's disease, 20 mg/kg daily po, 3 months
Source text: On the vertical axis it is represented the neuronal death (% of control) depending on the fatty acid used (x-axis). The presence of PUFAs induced modest increases in the survival of P19 cells in the presence of NMDA. D-PUFAs induced significant increases in cell survival values, exceeding in more than 200% in the case of 226A1. Since the number of cells in cultures treated cells is higher than in control cells, it may be affirmed that these compounds not only prevent neuronal death induced by NMDA (anti-neurodegenerative) but also are neuroregenerative agents. […] In the Y axis of the left figure it is shown the time taken to complete the exercise and in the vertical Y axis of the right figure the total number of errors made in the implementation of programmed exercise (mean standard error of the mean) (runtime). In both figures, from left to right, it is represented in the X axis the results in healthy mice (control) (first column), in mice with induced Alzheimer and treated with water as vehicle (second column) or in mice treated with the compound 226B1 (third column). Animals with Alzheimer's disease took longer and made more errors than healthy mice, being the differences statistically significant (*, P<0.05).
as §1, with “On the other hand, it is also interesting that these same compounds (183B1, 205A1, 205B1, 226A1, 226B1 and 226V1) also produced reductions in the times taken to complete the experiment in control animals (B6 healthy mice) of 8s, 11s, 12s, 18s, 16s and 14s, respectively. Therefore, it may be concluded that these compounds have significant activity against neurodegeneration and in neuroregeneration.” left out

3T3 cells = assay: Percentage of total PUFAs in membranes of 3T3 cells treated with fatty acids (gas chromatography); format: cell-based; conditions: 100 μM, 48 hours, mean ± SEM of four measures, control 32.4 ± 2.1
Source text: To perform these experiments, membranes were extracted and total fatty acids were obtained by hydrolysis in basic medium. Methanolic bases of these fatty acids were quantified by gas chromatography. The data shown are averages of four independent measures of PUFA's mass divided by the total fatty acids and expressed as a percentage. It is also shown is standard error of the mean.
The control corresponds to a culture without the presence of added natural or synthetic fatty acids. Cells in their natural form present PUFAs in their membranes, but the presence in the medium of the D-PUFA molecules of the invention increases these levels of PUFAs in the cell membrane.

HepG2 cells = assay: Liver cancer (HepG2 cells); format: cell-based; conditions: 72 hours
Experimental: These charts show the antitumor efficacy of the compounds of this invention against the growth of breast cancer cells, brain (glioma), and lung cancer. […] The other experimental conditions are identical to those described in the preceding paragraph.
Overall, it may be seen that the series of compounds A and B are the best, so the effectiveness of these series against the development of leukaemia and liver cancer (Tables 9 and 10) was tested.

[1] = system: heterotrimeric Gi1 protein; assay: Binding of heterotrimeric Gi1 protein to model membranes (centrifugation, immunoblotting); conditions: phosphatidylcholine:phosphatidylethanolamine (6:4) 2 mM phospholipid, 0.1 μM D-PUFA; control 100 ± 5; in % (unit assumed)
Source text: The net result is a regulation of cell signalling leading to the reversal of various pathological processes, as shown later. […] The Control is a sample of model membranes in the absence of fatty acids.

Structure (SMILES) | Production of TNF-α in serum (TNF-α) [%] | Reduction in the time taken to complete the experiment (B6 healthy mice) [s] | Time to complete the radial maze exercise (Alzh mice) [s] | Percentage of total PUFA (3T3 cells) [%] | IC50 (HepG2 cells; Homo sapiens, HepG2) [µM] | G protein binding [1] | IC50 (HepG2 cells) [µM]
CCC=CCC=CCC=CCCCCCCC(O)C(=O)[O-].[Na+] (stereo not drawn) [183B1] | 81 | 8 | 98 | – | – | – | –
CCC=CCC=CCC=CCC=CCC=CCCC(O)C(=O)O (stereo not drawn) [205A1, 2-hydroxy-5,8,11,14,17-eicosapentaenoic acid] | 56 | 11 | 92 | 46.7 ± 3.4 | 401 | 406 ± 14 | –
CCC=CCC=CCC=CCC=CCC=CCCC(O)C(=O)[O-].[Na+] (stereo not drawn) [205B1] | 69 | 12 | 93 | – | – | – | –
CCC=CCC=CCC=CCC=CCC=CCC=CCC(O)C(=O)O (stereo not drawn) [226A1] | 73 | 18 | 86 | 48.9 ± 3.7 | – | 422 ± 26 | 164
